Where no end group is shown, it is not given here.
Columns and labels:
[1] = Decomposition of the kinins within the organism; conditions: in vivo
Text: This is unexpected and surprising because the phenothiazines were known heretofore only as substances having an anti-depressive effect. This fact could cause one to conclude, however, that they could affect certain oligopeptides which influence the metabolism and would indirectly, i.e., by inhibiting the decomposition of the kinins, improve the glucose assimilation of the tissue.

spermatozoa = conditions: cited from earlier work
resting forearm = assay: Resting forearm test, 10 milliliter injection into the artery of the arm; assay type: in vivo, human; conditions: fraction of 1μ gram in 10 milliliter of 10% glucose solution injected into the artery of the arm, versus kinin-free solution
Text: This illustrates the improved glucose absorption into the tissue of the arm and the muscular system of the hand when the solution of the present invention is employed. Since the effect of this decrease in the glucose level of the blood by the kinin admixture occurs so quickly, it may be assumed that this is caused not by an intensification of the decomposition of the glucose or the metabolism within the cell but by a more rapid penetration of the muscular cell.

Row | Compound | decomposition of the kinins within the organism [1] | mobility of the spermatozoa (spermatozoa) | glucose content in the blood flowing through the vein of the arm (resting forearm)
1 | CN(C)CCCN1c2ccccc2Sc2ccc(Cl)cc21 [2-chloro-10-(3-dimethylamino-propyl)-phenothiazine] | inhibited significantly | – | –
2 | RPPGFSPFR [Brady kinin, (NH2) arginine - proline - proline - glycine - phenylalanine - serine - proline - phenylalanine - arginine (COOH)] | – | further the mobility of the spermatozoa | pronounced decrease
3 | kallidin: decapeptide kinin differing from Brady kinin only by a lysine residue at the amino end (KRPPGFSPFR; Lysyl-bradykinin; UniProt P01042 380-389, looked up) | – | further the mobility of the spermatozoa | –
